Test results published in patent US4013794A, “O-alkyl-S-alkyl-O-phenyl phosphates and insecticidal and acaricidal method of use” (priority 1973, dated 1977).

Key:
[1] = tested on: fly larvae (Lucilia cuprina res.); experiment: Test with parasitic fly larvae; type: in vivo; conditions: after 24 hours, read-out: Degree of destruction in %
Procedure: Solvent: 35 parts by weight of ethylene polyglycol monomethyl ether
Emulsifier: 35 parts by weight of nonylphenol polyglycol ether.
To produce a suitable preparation of active compound, 30 parts by weight of the active substance in question were mixed with the stated amount of solvent which contained the above-mentioned proportion of emulsifier and the concentrate thus obtained was diluted with water to the desired concentration.
About 20 fly larvae (Lucilia cuprina) were introduced into a test tube which contained approximately 2 ml of horse muscle. 0.5 ml of the preparation of active compound was applied to this horse meat. After 24 hours, the degree of destruction was determined in %. 100% means that all the larvae had been killed and 0% means that no larvae had been killed.

[2] = tested on: larvae of mustard beetles (Phaedon cochleariae); experiment: Phaedon-Larvae-Test; type: in vivo; conditions: in Brassica, 72 h, after 3 days, read-out: Degree of destruction in % after 3 days; for mortality at 0.004 % strength: 0.004 % active compound; for mortality at 0.02 % strength: 0.02 % active compound; for mortality at 0.1 % strength: 0.1 % active compound
Procedure: (§1) Solvent: 3 parts by weight Acetone
(§2) Emulsifier: 1 part by weight Alkylaryl polyglycol ether
To produce a suitable preparation of the particular active compound, 1 part by weight of such active compound is mixed with the stated amount of solvent and the stated amount of emulsifier, and the resulting concentrate is diluted with water to the desired final concentration.
Cabbage leaves (Brassica oleracea) are sprayed with the preparation of the given active compound until dripping wet and then infested with the larvae of mustard beetles (Phaedon cochleariae).
After specified periods of time, the degree of destruction is determined as a percentage: 100 % means that all the beetle larvae are killed, 0 % means that none of the beetle larvae are killed. The active compounds, the concentrations used, the evaluation time and the results obtained can be seen from the following Table 5: […]

[3] = tested on: peach aphids (Myzus persicae); experiment: Myzus Test (contact action); type: in vivo; conditions: 24 h, after 1 day, read-out: Degree of destruction in % after 1 day; for mortality at 0.02 % strength: 0.02 % active compound; for mortality at 0.1 % strength: 0.1 % active compound
Procedure: as §1, §2
(§3) To produce a suitable preparation of active compound, 1 part by weight of the active compound is mixed with the stated amount of solvent and the stated amount of emulsifier and the concentrate is diluted with water to the desired concentration.
Cabbage plants (Brassica oleracea) which have been heavily infested with peach aphids (Myzus persicae) are sprayed with the preparation of the active compound until dripping wet.
After the specified periods to time, the degree of destruction is determined as a percentage: 100 % means that all the aphids are killed whereas 0 % means that none of the aphids are killed.

[4] = tested on: caterpillars of the diamond-back moth (Plutella maculipennis); experiment: Plutella Test; type: in vivo; conditions: 72 h, after 3 days, read-out: Degree of destruction in % after 3 days; for mortality at 0.0008 % strength: 0.0008 % active compound; for mortality at 0.004 % strength: 0.004 % active compound; for mortality at 0.02 % strength: 0.02 % active compound; for mortality at 0.1 % strength: 0.1 % active compound
Procedure: as §1, §2, §3
Cabbage leaves (Brassica oleracea) are sprayed with the preparation of the active compound until dew moist and are then infested with caterpillars of the diamond-back moth (Plutella maculipennis).
After the specified periods of time, the degree of destruction is determined as a percentage: 100 % means that all the caterpillars are killed whereas 0 % means that none of the caterpillars are killed.

[5] = tested on: two-spotted spider mite (Tetranychus urticae); experiment: Tetranychus test (resistant); type: in vivo; conditions: 48 h, after 2 days, read-out: Degree of destruction in % after 2 days; for mortality at 0.01 % strength: 0.01 % active compound concentration; for mortality at 0.1 % strength: 0.1 % active compound concentration
Procedure: Solvent: 3 parts by weight of acetone
Emulsifier: 1 part by weight of alkylaryl polyglycol ether
To produce a suitable preparation of active compound, 1 part by weight of the active compound was mixed with the stated amount of solvent and the stated amount of emulsifier and the concentrate was diluted with water to the desired concentration.
These bean plants were heavily infested with the two-spotted spider mite (Tetranychus urticae) in all stages of development.
After the specified periods of time, the effectiveness of the preparation of active compounds was determined by counting the dead mites. The degree of destruction thus obtained is expressed as a percentage: 100% means that all the spider mites were killed, whereas 0% means that none of the spider mites were killed.

[6] = Toxicity test (peroral), albino rat; conditions: in vivo, po, evaluation after 7 days, read-out: LD50 values (in mg/kg of body weight)
Procedure: Test animal: Albino rat (Rattus norvegicus)
To produce a suitable preparation of active compound, 3 parts by weight of active compound were mixed with 2.8 parts by weight of highly dispersible silica and 4.2 parts by weight of talc. Suspensions which contained, in 1 ml of liquid, the amount of active compound to be applied per 100 g of animal weight, were prepared from the above active-compound concentrate, with a little added powdered vegetable gum, by grinding with water. Dosing was effected volumetrically after weighing the test animals. A steel, knob-ended probe was used for oral administration. The evaluation was carried out in each case after the end of the above-mentioned time interval, calculated from the administration of the active compound.
The LD50 values (dose of active compound at which 50% of the treated animals were killed) were determined in the usual manner from the mortality figures of the doses, which were varied in geometrical progression.

warm-blooded animals = conditions: prior-art compounds; cited from earlier work

CCCSP(=S)(OCC)Oc1ccc(SC(F)C(=O)OCC)cc1 (stereo not drawn) [drawing 16]
mortality at 10 ppm [1]: 0%
mortality at 30 ppm [1]: > 50%
mortality at 100 ppm [1]: 100%

CCOP(=S)(Oc1ccc(S(C)(=O)=O)cc1)SC (stereo not drawn) [drawing 24]
mortality at 0.004 % strength [2]: 15%
mortality at 0.02 % strength [2]: 100%
mortality at 0.1 % strength [2]: 100%

CCCSP(=S)(OCC)Oc1ccc(S(C)(=O)=O)cc1Br (stereo not drawn) [drawing 26]
mortality at 0.004 % strength [2]: 100%
mortality at 0.02 % strength [2]: 100%
mortality at 0.1 % strength [2]: 100%

CCCSP(=S)(OCC)Oc1ccc(S(=O)(=O)CCl)cc1 (stereo not drawn) [drawing 14]
mortality at 1 ppm [1]: 0%
mortality at 10 ppm [1]: 100%
mortality at 30 ppm [1]: 100%
mortality at 100 ppm [1]: 100%

CCCSP(=S)(OCC)Oc1ccc(S(=O)(=O)CCl)cc1 (stereo not drawn) [drawing 30]
mortality at 0.02 % strength [3]: 70%
mortality at 0.1 % strength [3]: 100%

CCCSP(=S)(OCC)Oc1ccc(S(C)(=O)=O)cc1Br (stereo not drawn) [drawing 22]
mortality at 0.0008 % strength [4]: 90%
mortality at 0.004 % strength [4]: 100%
mortality at 0.02 % strength [4]: 100%
mortality at 0.1 % strength [4]: 100%

CCCSP(=S)(OCC)Oc1ccc(S(=O)(=O)CCl)cc1Cl (stereo not drawn) [drawing 7]
mortality at 0.01 % strength [5]: 60%
mortality at 0.1 % strength [5]: 100%

CCCSP(=S)(OCC)Oc1ccc(S(C)(=O)=O)cc1 (stereo not drawn) [drawing 18]
mortality at 0.004 % strength [4]: 100%
mortality at 0.02 % strength [4]: 100%
mortality at 0.1 % strength [4]: 100%

CCOP(=S)(OCC)Oc1ccc(S(=O)(=O)CCl)cc1 [drawing 6, reference compound]
mortality at 0.01 % strength [5]: 0%
mortality at 0.1 % strength [5]: 50%

CCCSP(=S)(OCC)Oc1ccc(Cl)cc1Cl (stereo not drawn) [drawing 23, reference compound]
mortality at 0.004 % strength [2]: 20%
mortality at 0.02 % strength [2]: 100%
mortality at 0.1 % strength [2]: 100%

CCCSP(=S)(OCC)Oc1ccc(S(=O)(=O)CCl)cc1Cl (stereo not drawn) [drawing 12]
LD50 at 168 h [6]: 100 to 250 mg/kg

CCCSP(=S)(OCC)Oc1ccc(S(C)(=O)=O)cc1Cl (stereo not drawn) [drawing 20]
mortality at 0.0008 % strength [4]: 100%
mortality at 0.004 % strength [4]: 100%
mortality at 0.02 % strength [4]: 100%
mortality at 0.1 % strength [4]: 100%

CCCSP(=S)(OCC)Oc1ccc(S(=O)(=O)CCl)cc1 (stereo not drawn) [drawing 19]
mortality at 0.004 % strength [4]: 100%
mortality at 0.02 % strength [4]: 100%
mortality at 0.1 % strength [4]: 100%

CCCSP(=S)(OCC)Oc1ccc(Cl)cc1Cl (stereo not drawn) [drawing 21]
mortality at 0.0008 % strength [4]: 0%
mortality at 0.004 % strength [4]: 100%
mortality at 0.02 % strength [4]: 100%
mortality at 0.1 % strength [4]: 100%

CCOP(=S)(Oc1ccc(S(C)(=O)=O)cc1)SC (stereo not drawn) [drawing 27, reference compound]
mortality at 0.02 % strength [3]: 0%
mortality at 0.1 % strength [3]: 35%

CCCSP(=S)(OCC)Oc1ccc(SC(F)C(=O)OCC)cc1 (stereo not drawn) [drawing 13]
LD50 at 168 h [6]: 100 to 250 mg/kg

CCCSP(=S)(OCC)Oc1ccc(S(C)(=O)=O)cc1Cl (stereo not drawn) [drawing 15]
mortality at 1 ppm [1]: 0%
mortality at 3 ppm ([1]; 3 ppm): 100%
mortality at 10 ppm [1]: 100%
mortality at 30 ppm [1]: 100%
mortality at 100 ppm [1]: 100%

CCCSP(=S)(OCC)Oc1ccc(S(C)(=O)=O)cc1 (stereo not drawn) [drawing 25]
mortality at 0.004 % strength [2]: 100%
mortality at 0.02 % strength [2]: 100%
mortality at 0.1 % strength [2]: 100%

CCCSP(=S)(OCC)Oc1ccc(S(C)(=O)=O)cc1Cl (stereo not drawn) [drawing 9]
LD50 at 168 h [6]: 50 to 100 mg/kg

CCCSP(=S)(OCC)Oc1ccc(S(C)(=O)=O)cc1 (stereo not drawn) [drawing 28]
mortality at 0.02 % strength [3]: 60%
mortality at 0.1 % strength [3]: 100%

CCCSP(=S)(OCC)Oc1ccc(S(C)(=O)=O)cc1Br (stereo not drawn) [drawing 10]
LD50 at 168 h [6]: 50 to 100 mg/kg

CCOP(=S)(Oc1ccc(S(C)(=O)=O)cc1)SC (stereo not drawn) [drawing 17, reference compound]
mortality at 0.004 % strength [4]: 0%
mortality at 0.02 % strength [4]: 85%
mortality at 0.1 % strength [4]: 100%

CCOP(=S)(OCC)Oc1ccc(S(=O)(=O)CCl)cc1 [Compound A, O,O-diethyl-O-(4-chloromethylsulfonylphenyl)-thionophosphoric acid ester]
toxicity towards warm-blooded animals (warm-blooded animals): high toxicity

CCOP(=S)(OCC)Oc1ccc(S(=O)(=O)CCl)cc1 [drawing 8, reference compound]
LD50 at 168 h [6]: 2.5 to 5 mg/kg

CCCSP(=S)(OCC)Oc1ccc(S(C)(=O)=O)cc1Cl (stereo not drawn) [drawing 29]
mortality at 0.02 % strength [3]: 90%
mortality at 0.1 % strength [3]: 100%

CCCSP(=S)(OCC)Oc1ccc(S(=O)(=O)CCl)cc1Cl (stereo not drawn) [drawing 31]
mortality at 0.02 % strength [3]: 55%
mortality at 0.1 % strength [3]: 100%

CCCSP(=S)(OCC)Oc1ccc(S(=O)(=O)CCl)cc1 (stereo not drawn) [drawing 11]
LD50 at 168 h [6]: ~250 mg/kg
